Source: US20160058712A1, “3-HYDROXYPTEROSTILBENE AND THERAPEUTIC APPLICATIONS THEREOF” (priority 2014, published 2016)

Assays:
COLO 205 cells = assay: MTT cell viability assay, COLO 205; assay type: cell-based; settings: Homo sapiens, COLO205, MTT, 24 h
Procedure: (§1) The human colon cancer cell lines COLO 205, HCT116 and HT29 were purchased from the American Type Culture Collection (Rockville, Md.). Cell lines were grown in RPMI1640 supplemented with 10% heat inactivated fetal bovine serum (GIBCO BRL, Grand Island, N.Y.), 100 units/mL of penicillin, 100 μg/mL of streptomycin), 2 mM L-glutamine (GIBCO BRL, Grand Island, N.Y.), and were kept at 37° C. in a humidified 5% CO2 incubator. Pterostilbene and 3-HPT were dissolved in dimethyl sulfoxide (DMSO, as final concentration of 0.05%). Cells were treated with 0.05% DMSO as vehicle control.
(§2) Cell viability was assayed by 3(4,5-dimethylthiazol-2-yl)-2,5-diphenyltetrazolium bromide (MTT). Briefly. COLO 205, HCT116 and HT29 cells were plated at a density of 2×10^2 cells/mL into 96 well plates. After overnight growth, cells were treated with a series of concentrations of pterostilbene or 3-hydroxypterostilbene for 24 h. The final concentrations of DMSO in the culture medium were <0.05%. At the end of treatment, 0.2% MTT was added and cells were incubated for a further 4 h. Cell viability was determined by scanning with an ELISA reader with a 570 nm filter.

HCT-116 cells = assay: MTT cell viability assay, HCT116; assay type: cell-based; settings: Homo sapiens; HCT-116, MTT, 24 h
Procedure: as §1, §2

[1] = test system: PC-3 (Human prostate cancer cell line); assay: MTT cell viability assay, PC-3; assay type: cell-based
Procedure: as §2
The MTT reaction explained in Para 0040 was also used to assess the cell viability of human prostate cancer cells (PC-3) in the presence of pterostilbene and 3-hydroxypterostilbene. The results (FIG. 1) are represented in Table II.

[2] = test system: COLO 205 xenograft tumors; assay: COLO 205 xenograft model; assay type: in vivo
Procedure: Male Balb/c nude mice at 3-4 weeks old (weighing 16-18 g) were obtained from the BioLASCO Experimental Animal Center (BioLASCO, Taipei, Taiwan). All animals were maintained in pathogen free sterile isolators and in a controlled atmosphere (25±1° C. at 50% relative humidity) and with a 12 h light-12 h dark cycle according to institutional guidelines. Animals were fed with standard AIN76 diet and all food, water, caging, and bedding were sterilized prior to use. Animals had free access to food and water at all times. Food cups were replenished with fresh diet every day. All animal experimental protocol used in this study was approved by Institutional Animal Care and Use Committee of the National Kaohsiung Marine University (IACUC, NKMU, #099AAA902, Validity dates: Jan. 1, 2009 Jul. 31, 2012). After 1 week of acclimation, colon cancer COLO 205 cells (5×10^6) in 0.2 mL PBS were injected subcutaneously between the scapulae of each nude mouse. After transplantation, tumor size was measured using calipers, and the tumor volume was estimated according to the following formula: tumor volume […]=L×W2/2, where L is the length and W is the width. Once tumors reached a mean size of […], mice were randomly divided into three groups (6 animals/group). Mice were i.p. injection with pterostilbene or 3-hydroxypterostilbene (10 mg/kg/d, respectively) for 15 days, while control animals were received injection of corn oil. The diet intake and body weight of each animal was monitored every day. The tumor volume was assessed and recorded every 5 days using caliper measurements. After 15 days, the mice were sacrificed by […] and the liver, kidneys, spleen and solid tumors were excised immediately and weighed. Average tumor volume and tumor weight of each group were represent the mean±standard deviation (SD). Average tumor volumes were recorded during the treatment and average tumor weights were measured at the end of experiment. Six samples were analyzed in each group, and values represent the mean±SD. *P<0.05 and **P<0.01, compared with control group. #P<0.05, compared with pterostilbene treated group. The tumor tissues were cut into several portion for western blot analysis or stored at −80° C. […] Furthermore, in mice receiving these treatment regimens, no gross signs of toxicity were observed during visible inspections of general appearance and microscopic examinations of individual organs. • 2.

PC-3 cell lines = assay: Microscopic morphological changes of PC-3 cells; assay type: cell-based, human; settings: PC-3, 2.5-20 μM, 100× phase contrast
Procedure: The morphological changes evident in PC-3 cell lines treated with graded concentrations of 3-HPT (2.5 μM, 5 μM, 10 μM and 20 μM of 3-HPT) as viewed microscopically (100× under inverted stage microscope equipped with phase contrast) indicated cell cytotoxicity starting at a concentration of 5 μM 3-HPT (FIG. 2).

PC-3 cells [3] = assay: DNA fragmentation by agarose gel electrophoresis; assay type: cell-based, human; settings: PC-3, 0-20 μM, 48 hr, 2.0% agarose gel
[4] = test system: Bcl-xL and Bax in PC-3 cells; assay: Western blot of Bcl-xL and Bax expression; assay type: cell-based, human; settings: PC-3, 10 μM, different time intervals
PC-3 cells [5] = assay: Detection of autophagy (GFP-LC3 autophagosomes, Beclin-1/LC3 Western blot); assay type: cell-based, human; settings: PC-3, 10 μM
Procedure: Photographs were obtained with a fluorescence microscope (Axioscop, Carl Zeiss, Thomwood, N.Y.) equipped with a mercury 100 W lamp, 490 nm band pass blue excitation filters, a 500 nm dichroic mirror and a 515 nm long pass barrier filter. The autophagy induced by 3-HPT in PC-3 cells was also further confirmed by the Western Blotting analysis of Beclin-1, LC3-I, LC3-II, Actin protein expression in PC-3 cells after 10 μM 3-HPT treatment at different time intervals (FIG. 9). The following conclusions were drawn based on aforesaid experimental studies. • 1. […] 3-Hydroxypterostilbene induced the intrinsic apoptotic pathway and extrinsic apoptotic pathway in PC-3 cells. • 3. […] 3′-Hydroxypterostilbene has significant therapeutic potential for the treatment of human prostate cancer.

[6] = test system: multi drug resistant and BCR-ABL-expressing leukemia cells; settings: Tolomeo et al. 2005; cited from earlier work

Q: With `COc1cc(/C=C/c2ccc(O)c(O)c2)cc(OC)c1` [3-hydroxypterostilbene, 3,4-dihydroxy-3′,5′-dimethoxy-trans-stilbene] as the compound, how does the IC50 (COLO 205 cells) read?
A: The IC50 was 9 ± 0.2 µM.

Q: And the IC50 (HCT-116 cells)?
A: Its IC50 is 40.2 ± 0.6 µM.

Q: What about the IC50 ([1]; Homo sapiens, PC-3, MTT) of the same compound?
A: The IC50 was 5 µM.

Q: What about the growth inhibitory effect ([1]; PC-3 human prostate cancer cells) of the same compound?
A: The growth inhibitory effect was “strong growth inhibitory effect”.

Q: And the “protein levels of COX2, MMP9, VEGF, cyclin D1, and procaspase 3 in tumors” value ([2]; 10 mg/kg, Western blot, compared to the pterostilbene group)?
A: Its value is “markedly decreased”.

Q: And the “side effects or toxicity (body and organ weights, gross signs)” value ([2]; 10 mg/kg/d i.p., 15 days, nude mice)?
A: The value was “no noticeable side effects or toxicity”.

Q: What about the tumor volume ([2]; 10 mg/kg/d i.p., after 15 days) of the same compound?
A: The tumor volume was “significantly inhibited in comparison with the pterostilbene treated mice”.

Q: And the tumor weight ([2]; 10 mg/kg/d i.p., end of experiment)?
A: Its tumor weight is “strongly inhibited”.

Q: What about the “concentration at which cell cytotoxicity starts (morphological changes)” value (PC-3 cell lines) of the same compound?
A: The value was 5 μM.

Q: And the DNA fragmentation (PC-3 cells [3])?
A: The DNA fragmentation was “indicated apoptotic cells death”.

Q: What about the “Bax (pro-apoptotic protein) expression” value [4] of the same compound?
A: The value was “upregulates”.

Q: And the “Bcl-xL (anti-apoptotic protein) expression” value [4]?
A: Its value is “clearly down-regulates”.

Q: And the “autophagy (Beclin-1, LC3 expression, autophagosome formation)” value (PC-3 cells [5])?
A: Its value is “induced autophagic cell death by increasing the Beclin-1, LC3 protein expression and autophagosome formation”.

Q: What about the “apoptosis induction in leukemia cells” value [6] of the same compound?
A: Its value is “effective apoptosis-inducing agents”.
